“And” between values parts separate entries of the source, which are not always exact repeats. Identical values can stand only once. Numbered stars: 1 amine (or outer) side, 2 acyl side, 3 side chain; on linkers, the order of the positions; unused ones are H or OH. Bridge positions count the residues as written; N and C are the ends. Square brackets hold non-standard residues; d marks the D form. Peptide text beside a SMILES is read from it. X1 = O=C(c1ccc(O)cc1)[C@H](N[*:1])C(=O)[*:2]
Key:
healthy volunteer [1] = assay: Patient's global impression of improvement (PGI) for sexual events (arousal, orgasm, overall satisfaction), same single-volunteer study; assay type: in vivo, human
healthy volunteer [2] = assay: Daily sexual desire score (0-2) in a single volunteer given four sequential 4-week treatments; assay type: in vivo, human; details: for sexual desire, comparison of bupropion alone with trazodone alone: 4 weeks each; for sexual desire response: 4 weeks of treatment
Method: A healthy volunteer in a stable marital relationship for two years with no current sexual disorders, exposed themself sequentially to four treatments, each for 4 weeks: (1) Treatment B: Instant-release (IR) Bupropion (Bup) 150 mg in the morning and 100 mg in the evening; (2) Treatment T: IR trazodone (Trz) 50 mg t.i.d.; (3) Treatment Llow, IR Trz 25 mg b.i.d. plus IR Bup 150 mg in the morning and 100 mg in the evening; and (4) Treatment Lhigh, IR Trz 50 mg t.i.d. plus IR Bup 75 mg t.i.d. A washout of 1-4 weeks occurred between each treatment.
The test used for the desire score was a two-tailed paired t test, using all scores within a given treatment as repeated measures. […] Both were from the website graphpad.com.* *http://graphpad.com/quickcalcs/chisquared1.cfm

men = details: 24 IU intranasal, placebo-controlled; cited from earlier work
patients = details: transnasal, three patients; cited from earlier work
[3] = wks 1-2, arousal, orgasm, overall satisfaction

Structure (SMILES) | PGI Improved for Sexual Events, Sum of 3 domains, % improved (healthy volunteer [1]; total, all four weeks) [%] | PGI Improved for Sexual Events, Sum of 3 domains, n/N (healthy volunteer [1]; total, all four weeks) | PGI Improved for Sexual Events, Sum of 3 domains, % improved (healthy volunteer [1]; wks 1-2) [%] | PGI Improved for Sexual Events, Sum of 3 domains, n/N (healthy volunteer [1]; [3]) | PGI Improved for Sexual Events, Sum of 3 domains, % improved (healthy volunteer [1]; wks 3-4) [%] | PGI Improved for Sexual Events, Sum of 3 domains, n/N (healthy volunteer [1]; wks 3-4) | sexual desire response (healthy volunteer [2]) | 0-2 Daily Desire Score, mean ± SD (healthy volunteer [2]; total, all four weeks) | 0-2 Daily Desire Score, mean ± SD (healthy volunteer [2]; wks 1-2) | 0-2 Daily Desire Score, % of max. (healthy volunteer [2]; wks 1-2, max. = 28) [%] | 0-2 Daily Desire Score, total (healthy volunteer [2]; wks 1-2, max. = 28) | 0-2 Daily Desire Score, % of max. (healthy volunteer [2]; wks 3-4, max. = 28) | 0-2 Daily Desire Score, total (healthy volunteer [2]; wks 3-4, max. = 28) | also measured
CC(NC(C)(C)C)C(=O)c1cccc(Cl)c1 (racemic) [Bup, (±)-2-(tert-Butylamino)-1-(3-chlorophenyl)propan-1-one] | 20 | 6/30 | 27 | 4/15 | 13 | 2/15 | intermediate | 0.82 ± 0.55 | 0.65 ± 0.74 | 32 | 9 | 50% | 14 | arousal, % of sexual events improved (healthy volunteer [1]; third and fourth weeks of use): 0%; arousal, % of sexual events improved (healthy volunteer [1]; total for all four weeks): 20%; arousal, % of sexual events improved (healthy volunteer [1]; weeks 1-2): 40%; arousal, sexual events improved, n/N (healthy volunteer [1]; weeks 1-2): ⅖; PGI Improved for Sexual Events, Sum of 3 domains, % improved (healthy volunteer [1]; wks 3-4, listed as B): 20% and 13%; sexual desire, comparison of bupropion alone with trazodone alone (healthy volunteer [2]; listed as B): markedly superior to T; sexual desire, comparison of bupropion alone with trazodone alone (healthy volunteer [2]; listed as Treatment B): superior to Treatment T
CC[C@H](C)[C@@H]1NC(=O)[C@H](C(=O)c2ccc(O)cc2)NC(=O)[C@@H](N)CSSC[C@@H](C(=O)N2CCC[C@H]2C(=O)N[C@@H](CC(C)C)C(=O)NCC(N)=O)NC(=O)[C@H](CC(N)=O)NC(=O)[C@H](CCC(N)=O)NC1=O [OT, 1-({(4R,7S,10S,13S,16S,19R)-19-amino-7-(2-amino-2-oxoethyl)-10-(3-amino-3-oxopropyl)-16-(4-hydroxybenzoyl)-13-[(1S)-1-methylpropyl]-6,9,12,15,18-pentaoxo-1,2-dithia-5,8,11,14,17-pentaazacycloicosan-4-yl}carbonyl)-L-prolyl-L-leucylglycinamide] (H-C[X1]IQNCPLG-NH2; disulfide 1-6) |  |  |  |  |  |  |  |  |  |  |  |  |  | arousal or orgasm on the Acute Sexual Experiences Scale (ASES) (men): failed to increase arousal or orgasm; effect on sexual function in case reports (patients): pro-sexual effects
O=c1n(CCCN2CCN(c3cccc(Cl)c3)CC2)nc2ccccn12 [Trz, 2-{3-[4-(3-chlorophenyl)piperazin-1-yl]propyl}[1,2,4]triazolo[4,3-a]pyridin-3(2H)-one] | 20 | 6/30 | 25 | 3/12 | 17 | 3/18 | low | 0.07 ± 0.38 | 0.14 ± 0.53 | 7 | 2 | 0, 0% | 0, 0% | 0-2 Daily Desire Score, % of max. (healthy volunteer [2]; total, all four weeks): 4%; 0-2 Daily Desire Score, total (healthy volunteer [2]; total, all four weeks): 2
